Measured values from patent publication US9119847B2, “Neferine and the use thereof in treating huntington disease” (Macau University of Science and Technology, priority 2013, dated 2015).

What was measured:
mutant huntingtin = details: mouse model of Huntington's disease, ref. [10]; cited from earlier work
PC-12 cells [1] = assay: Cytotoxicity, crystal violet staining cell viability assay; assay type: cell-based, rat; details: 7.5 μM neferine, 24 hours, PC-12 cells (FIGS. 6A, 6B)
Protocol: The test compound of neferine was dissolved in dimethyl sulfoxide (DMSO) at a final concentration of 100 mmol/L and stored at −20° C. For cell viability assay measured by crystal violet staining, PC-12 cells were incubated in 35 mm disc followed by the addition of 7.5 μM neferine for 24 hours. The cells were then incubated with crystal violet for 10 minutes followed by a ddH2O wash. The stained cell images were captured by CCD digital camera Spot RT3™ under the Nikon ECLIPSE 80i microscope with 4× magnification. Cell viability was quantified by dissolving stained cells in 10% acetic acid (200 μL/well). The colorimetric reading of the solute mixture was then determined by spectrophotometer at OD 560 nm. The percentage of cell viability was calculated using the following formula: Cell viability (%)=Cells number treated/Cells number DMSO control×100. Data were obtained from three independent experiments.

[2] = tested on: Atg7 wild-type mouse embryonic fibroblasts (Atg7+/+); assay: GFP-LC3 puncta in Atg7 wild-type MEFs; assay type: cell-based; details: 7.5 μM neferine, 24 h, Atg7+/+ MEFs (FIGS. 4A, 4B)
Protocol: (§1) GFP-LC3 puncta formation was quantified as previously described. In brief, both Atg7 wild-type and deficient mouse embryonic fibroblasts (MEFs) grown on coverslips in a 6-well plate were treated with indicated concentrations of neferine. The cells were then fixed in 4% paraformaldehyde for 20 minutes at room temperature and then rinsed with PBS. Slides were mounted with FluorSave™ mounting media (Calbiochem, San Diego, Calif.) and examined by fluorescence microscopy. The number of GFP-positive cells with GFP-LC3 puncta formation was examined under the Nikon ECLIPSE 80i microscope. Representative images were captured with CCD digital camera Spot RT3™ (Diagnostic Instruments, Inc., Melville, N.Y.). To quantify for autophagy, the percentage of cells with punctate GFP-LC3 fluorescence was calculated by counting the number of the cells with punctate GFP-LC3 fluorescence in GFP-positive cells. A minimum of 150 cells from 3 randomly selected fields was scored.

[3] = tested on: PC-12 cells transfected with mutant huntingtin EGFP-HDQ 55 and 74; assay: MTT cytotoxicity assay in PC-12 cells expressing mutant huntingtin; assay type: cell-based, rat; details: 7.5 μM neferine, 24 h, PC-12 cells with EGFP-HDQ 55 or EGFP-HDQ 74 (FIG. 7)
Protocol: Cell cytotoxicity assay: Cytotoxicity was assessed using the 3-(4,5-dimethylthiazol-2-yl)-2,5-diphenyltetrazolium bromide assay. PC-12 cells were transfected with or without mutant huntingtin EGFP-HDQ 55 and 74 for 16 h, the PC-12 cells (4000 cells) were then seeded on 96-well plates per well and then exposed to 7.5 μM of neferine for 24 h […]. Subsequently, 10 μL of MTT reagents was added to each well and incubated at 37° C. for 4 hours, followed by the addition of 100 μL solubilization buffer (10% SDS in 0.01 mol/L HCl) and overnight incubation. Absorbance at 585 nm was determined from each well on the following day. The percentage of cell viability was calculated using the following formula: Cell viability (%)=Cells number treated/Cells number DMSO control×100. Data was obtained from three independent experiments.

[4] = tested on: Atg7-knockout mouse embryonic fibroblasts (Atg7−/−); assay: GFP-LC3 puncta in Atg7 deficient MEFs; assay type: cell-based; details: 7.5 μM neferine, 24 h, Atg7−/− MEFs (FIGS. 4A, 4B)
Protocol: as §1

[5] = tested on: EGFP-HDQ74 transfected Atg7 deficient MEFs; assay: Mutant huntingtin aggregates in EGFP-HDQ74 transfected Atg7 deficient MEFs; assay type: cell-based, mouse; details: 7.5 μM neferine, 24 h, Atg7−/− cells (FIGS. 5A, 5B)
Protocol: (§2) In brief, both EGFP-HDQ74 transfected Atg7 wild-type and deficient mouse embryonic fibroblasts (MEFs) grown on coverslips in a 6-well plate were treated with indicated concentrations of neferine. The cells were then fixed in 4% paraformaldehyde for 20 minutes at room temperature and then rinsed with PBS. Slides were mounted with FluorSave™ mounting media (Calbiochem, San Diego, Calif.) and examined by fluorescence microscopy. The number of cells with GFP-aggregates formation was examined under the Nikon ECLIPSE 80i microscope. Representative images were captured with CCD digital camera Spot RT3™ (Diagnostic Instruments, Inc., Melville, N.Y.). To quantify for the clearance of mutant huntingtin, the percentage of cells with GFP-aggregates was calculated by counting the number of the cells with […] in GFP-positive cells. A minimum of 150 cells from 3 randomly selected fields was scored.

[6] = tested on: PC-12 cells expressing GFP-LC3; assay: Quantification of neferine-mediated autophagy (GFP-LC3 puncta) in the presence of compound C; assay type: cell-based, rat; details: 7.5 μM neferine plus compound C 5 μM, PC-12 cells (FIGS. 2B, 2C)
Protocol: GFP-LC3 puncta formation was quantified as previously described. In brief, PC-12 cells expressing GFP-LC3 were treated with 7.5 μM neferine in the presence of compound C (CC, 5 μM) for 12 h. The cells were then fixed in 4% paraformaldehyde for 20 minutes at room temperature and then rinsed with PBS. Slides were mounted with FluorSave™ mounting media (Calbiochem) and examined by fluorescence microscopy. To quantify for autophagy, the percentage of cells with punctate GFP-LC3 fluorescence was calculated by counting the number of the cells with punctate GFP-LC3 fluorescence in GFP-positive cells. A minimum of 150 cells from 3 randomly selected fields was scored.

PC-12 cells [7] = assay: Quantification of autophagy GFP-LC3 puncta in PC-12 cells; assay type: cell-based, rat
Protocol: as §1, with “PC-12 cells” for “both Atg7 wild-type and deficient mouse embryonic fibroblasts (MEFs)”, “were” for “were treated with indicated concentrations of neferine. The cells were then”
The data of PC-12 cells with GFP-LC3 expression without any treatment of neferine was used as control.

[8] = tested on: AMPK-mTOR signaling pathway; assay: Detection of mTOR signaling marker proteins (p-AMPK, p-p70S6K) and LC3-II by western blot; assay type: cell-based, rat
Protocol: PC-12 cells were treated with neferine (7.5 μM) from 0-24 h. Cells treated with 0.3 μM of rapamycin (Rap) for 24 h were used as the positive control. Cell lysate was then harvested and analyzed for p-AMPK, AMPK, p-p70S6K, p70S6K and α-tubulin respectively. PC-12 cells were treated with 7.5 μM of neferine with or without AMPK inhibitor (compound C, CC, 5 μM) for 24 h for the detection of LC3-II marker. Cell lysates were analyzed for LC3 I/II and β-actin, respectively. After that, the membrane was further incubated with HRP-conjugated secondary antibodies for 60 minutes. Finally, protein bands were visualized by using the ECL Western Blotting Detection Reagents (Invitrogen).

[9] = tested on: EGFP-HDQ74 transfected Atg7 wild-type MEFs; assay: Mutant huntingtin aggregates in EGFP-HDQ74 transfected Atg7 wild-type MEFs; assay type: cell-based, mouse; details: 7.5 μM neferine, 24 h, Atg7+/+ cells (FIGS. 5A, 5B)
Protocol: as §2

LC3-II = assay: Detection of autophagic marker protein LC3 conversion (western blot); assay type: cell-based, rat; details: PC-12 cells, with lysosomal protease inhibitors E64d and pepstatin A (FIG. 1D)
Protocol: After neferine treatments with or without autophagy inhibitor (3-Methyladenine, 3-MA) and protease inhibitor (10 μg/mL E64D and pepstain A), cells were harvested and lysed in RIPA buffer (Cell Signaling Technologies Inc., Beverly, Mass.). The cell lysates were then resolved by SDS-PAGE. After electrophoresis, the proteins from SDS-PAGE were transferred to nitrocellulose membrane which was then blocked with 5% non-fat dried milk for 60 minutes. The membrane was then incubated with LC3 primary antibodies (1:1000) in TBST overnight at 4° C. After that, the membrane was further incubated with HRP-conjugated secondary antibodies for 60 minutes. Finally, protein bands were visualized by using the ECL Western Blotting Detection Reagents (Invitrogen, Paisley, Scotland, UK).
To further confirm its autophagic activity, PC-12 cells treated with neferine were analyzed by western blot for LC3-I to LC3-II conversion. To differentiate that the autophagy effect was due to LC3-II formation, rather than failure of fusion between autophagosome and lysosomes, level of LC3-II was assayed with the presence of two lysosomal inhibitors (E64d and pepstatin A) that […].

[10] = tested on: mutant huntingtin EGFP-HDQ 55/74; assay: Removal of mutant huntingtin EGFP-HDQ 55/74, immunoblotting against EGFP; assay type: cell-based, rat; details: 7.5 μM neferine, 24 hours, transfected PC-12 cells (FIG. 3)
Protocol: PC-12 cells were transfected transiently with EGFP-HDQ 55/74 plasmids for 24 hours using Lipofectamine Plus LTX reagent (Invitrogen) according to the manufacturer's protocol. The transfected cells were then treated with 7.5 μM neferine for 24 hours. The removal of mutant huntingtin, EGFP-HDQ 55 and 74, was then quantitated by immunoblotting with antibody against EGFP.

[11] = ref. [14]; cited from earlier work
[12] = 7.5 μM neferine, 0-24 h, PC-12 cells (FIG. 2A)

SMILES: C1COC(NC(C2CC2)C2CC2)=N1 [rilmenidine]
- toxicity of mutant huntingtin (mutant huntingtin): attenuate the toxicity of mutant huntingtin

SMILES: COc1ccc(C[C@@H]2c3cc(Oc4cc(C[C@@H]5c6cc(OC)c(OC)cc6CCN5C)ccc4O)c(OC)cc3CCN2C)cc1 [neferine]
- cytotoxicity / morphological damage (crystal violet assay) (PC-12 cells [1]): no significant morphological damage
- GFP-LC3 puncta formation [2]: induce GFP-LC3 puncta formation
- cell death induced by mutant huntingtin (cell viability, MTT) [3]: attenuated cell death induced by mutant huntingtin
- GFP-LC3 puncta formation [4]: not in Atg7-knockout mouse embryonic fibroblasts
- clearance of mutant huntingtin EGFP-HDQ74 inclusions [5]: not in autophagy-deficient cells
- neferine-induced GFP-LC3 puncta formation in presence of AMPK inhibitor compound C [6]: significant reduction in neferine-induced GFP-LC3 puncta formation
- percentage of cells with GFP-LC3 puncta formation (PC-12 cells [7]; 7.5 μM neferine, 24 h, PC-12 cells with GFP-LC3 expression, vs untreated control (FIGS. 1B, 1C)): increased the percentage of cells with GFP-LC3 puncta formation significantly
- GFP-LC3 puncta formation in presence of autophagy inhibitor 3-MA (PC-12 cells [7]; neferine plus 3-Methyladenine (3-MA), PC-12 cells): significant reduction in GFP-LC3 puncta formation
- LC3-II level in presence of AMPK inhibitor compound C ([8]; 7.5 μM neferine plus compound C 5 μM, 24 h, PC-12 cells, western blot (FIG. 2D)): decrease in LC3-II level
- p70S6K phosphorylation [8, 12]: concomitant reduction in its downstream p70S6K phosphorylation
- phosphorylation of AMPK [8, 12]: activate the phosphorylation of AMPK in a time dependent manner
- clearance of mutant huntingtin EGFP-HDQ74 inclusions [9]: enhance the clearance of mutant huntingtin EGFP-HDQ74 inclusions
- rate of LC3-II formation (LC3-I to LC3-II conversion) (LC3-II): increases the rate of LC3-II formation
- clearance of overexpressed EGFP-tagged mutant huntingtin EGFP-HDQ 55 [10]: enhanced the clearance
- clearance of overexpressed EGFP-tagged mutant huntingtin EGFP-HDQ 74 [10]: enhanced the clearance

SMILES: O=c1c(O)c(-c2ccc(O)c(O)c2)oc2cc(O)ccc12 [fisetin]
- bioavailability [11]: poor bioavailability
- effective concentration [11]: high effective concentration
- lipophilicity [11]: low lipophilicity
